Results: patent US20230416258A1, “BENZ[…], AND PREPARATION METHOD THEREFOR AND USE THEREOF” (CHINA PHARMACEUTICAL UNIVERSITY, priority 2020, published 2023)
pIC50: −log10 of the molar value. Like-named read-outs stand apart in the source and are kept apart here.

Legend:
[1] = test system: SD rats; assay: Test for drug-induced disappearance of righting reflex in rats; type: in vivo; details: single rapid bolus via tail vein
How it was run: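 Male SD rats (200-280 g) were randomly grouped and given a single rapid bolus dose via the tail vein. Latency to loss of righting reflex and its duration were recorded.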

[2] = test system: KM mice; assay: Test for drug-induced disappearance of righting reflex in mice; type: in vivo; details: single rapid bolus via tail vein
How it was run: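 Female KM mice (18–25 g), randomly grouped, given a single rapid bolus via tail vein. Latency (administration to loss of righting reflex) and duration (loss to recovery) recorded.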

[3] = In vitro plasma half-life of drug; type: in vitro ADME, SD rats; details: SD rat plasma, 37° C.; for half-life at 0.4 mg/mL: plasma (heparin sodium)
Protocol: Preparation of plasma: after the SD rats were fasted and kept with water for 12 h, blood was collected through orbital venous plexus. The freshly collected blood was added into a centrifuge tube containing heparin sodium and centrifuged at 5000 rpm for 10 min at 4° C. The supernatant was slowly pipetted and subpackaged. Finally, the collected SD rat plasma was sealed, marked, and stored at −20° C. for later use.
Preparation of target compound sample: the target compound was precisely weighed by an analytical balance and prepared into a stock solution at a concentration of 2 mg/mL (solvent: Vacetone:VTween 80:Vnormal saline=1:1:3) for later use.
Determination of in vitro half-life of target compound sample: 20 μL of test compound stock solution and 80 μL of rat plasma were mixed uniformly. Nine parallel ep tubes were taken, marked as corresponding test tubes of 0 min, 1 min, 2 min, 3 min, 5 min, 10 min, 15 min, 20 min, and 30 min, respectively, and placed in a water bath at 37° C. for incubation for 0 min, 1 min, 2 min, 3 min, 5 min, 10 min, 15 min, 20 min, and 30 min, respectively. 50 μL of mixed solution were taken from the corresponding ep tube at each time point, and […] of acetonitrile was added for precipitating protein. The mixture was vortexed for 10 min using a mixer and centrifuged at 12000 rpm for 15 min. Then, the supernatant was centrifuged at 12000 rpm for 10 min. The optimal detection method for the target compound in the MRM mode was determined using Intellistat software in UPLC-MS/MS, the peak area of the corresponding mass spectrum was integrated, and the plasma half-life of the compound was calculated.

[4] = test system: GABA-activated Cl− current (GABAA receptor) in HEK 293T cells; assay: Effect of drugs on GABA-activated current in cells by cell patch clamp; type: cell-based; details: for Enhancement percentage Emax for 2 μM GABA current (within 3-30 μM): corresponding concentration 20 μM
How it was run: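 Whole-cell patch clamp of HEK 293T cells held at −60 mV; compound applied together with 2 μM GABA in extracellular buffer (140 mM NaCl, HEPES, pH 7.4). Enhancement of GABA-evoked Cl− current recorded in the same cell, reported as maximal enhancement (Emax) and corresponding concentration.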

[5] = test system: SD rats; assay: Induction of anesthesia in rats by continuous infusion of drug for 20 min; type: in vivo; details: initial dose 20 mg/kg bolus, maintenance dose 0.2 (mg/kg)/min for 20 min, after infusion completed
Protocol: SD rats (male, 200-280 g) were randomly grouped and subjected to administration of an initial dose by rapid bolus via the tail vein, followed by a continuous infusion with a maintenance dose for 20 min.
After the infusion was completed, the duration of the righting reflex and the time from wake-up to recovery in rats were recorded.

[6] = test system: hCMEC/D3 cells; assay: Rate of drug passing through in vitro blood-brain barrier (Transwell); type: in vitro ADME; details: hCMEC/D3 monolayer, compound 0.1 mg/mL
How it was run: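 Confluent hCMEC/D3 monolayers grown 10 days on Transwell inserts (5.0 μm pores). Compound at 0.1 mg/mL added to the lower chamber; upper-chamber concentration measured after 5 min, with permeability expressed as upper/lower concentration ×100%.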

[7] = molecular target: voltage-gated potassium channel hERG (Homo sapiens (Human), UniProt Q12809); assay: Predictor hERG fluorescence polarization assay; type: binding
Protocol: In this experiment, IC50 was calculated by detecting the effect of compounds at 8 concentrations on the […]. The procedures were performed exactly as for Predictor™ hERG fluorescence polarization assay kit. Before measuring fluorescence polarization, the assay plate was covered to protect the reagents from light and evaporation, and after incubation at room temperature for 2-4 h, the sample plate was centrifuged to read the fluorescence polarization value, with the excitation light at 540 nm and the emission light at 573 nm.

[8] = read-out: Positive enhancement EC50 (μM) for 2 μM GABA-induced current, −60 mV
[9] = 2 μM GABA, −60 mV, read-out: Positive enhancement EC50 (μM) for 2 μM GABA-induced current

Chain of voltage-gated potassium channel hERG (Q12809 whole entry, looked up): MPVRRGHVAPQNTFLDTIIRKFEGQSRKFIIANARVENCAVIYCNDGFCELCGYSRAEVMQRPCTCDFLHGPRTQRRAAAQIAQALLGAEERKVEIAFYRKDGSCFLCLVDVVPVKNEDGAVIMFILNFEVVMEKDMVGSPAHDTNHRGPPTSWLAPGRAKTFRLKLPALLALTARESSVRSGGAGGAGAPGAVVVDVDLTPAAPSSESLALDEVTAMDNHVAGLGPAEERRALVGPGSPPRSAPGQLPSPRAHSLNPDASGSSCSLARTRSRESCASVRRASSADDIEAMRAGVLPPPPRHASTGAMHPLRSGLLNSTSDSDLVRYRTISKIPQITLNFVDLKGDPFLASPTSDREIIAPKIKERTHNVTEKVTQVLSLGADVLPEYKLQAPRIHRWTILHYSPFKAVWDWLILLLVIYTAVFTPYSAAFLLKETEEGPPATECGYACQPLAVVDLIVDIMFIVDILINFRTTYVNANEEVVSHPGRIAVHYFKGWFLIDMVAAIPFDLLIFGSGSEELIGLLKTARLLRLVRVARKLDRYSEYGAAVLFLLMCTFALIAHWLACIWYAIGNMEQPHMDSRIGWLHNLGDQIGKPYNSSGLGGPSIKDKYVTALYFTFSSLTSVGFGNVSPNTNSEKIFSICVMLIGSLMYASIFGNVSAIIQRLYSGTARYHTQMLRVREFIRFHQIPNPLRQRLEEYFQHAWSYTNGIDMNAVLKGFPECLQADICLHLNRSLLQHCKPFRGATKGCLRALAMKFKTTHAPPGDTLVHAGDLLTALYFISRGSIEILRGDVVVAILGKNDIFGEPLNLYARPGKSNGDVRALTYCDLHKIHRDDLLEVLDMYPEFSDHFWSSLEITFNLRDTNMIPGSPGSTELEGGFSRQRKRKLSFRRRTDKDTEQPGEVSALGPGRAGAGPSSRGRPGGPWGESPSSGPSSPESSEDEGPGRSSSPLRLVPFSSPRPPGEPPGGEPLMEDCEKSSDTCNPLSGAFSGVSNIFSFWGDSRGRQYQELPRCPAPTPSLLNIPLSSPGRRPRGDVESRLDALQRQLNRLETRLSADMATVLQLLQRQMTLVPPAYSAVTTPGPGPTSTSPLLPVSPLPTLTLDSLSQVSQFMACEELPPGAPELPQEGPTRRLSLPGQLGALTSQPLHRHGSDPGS

`COC(=O)CC[C@@H]1N=C(c2ccccc2)c2cc(Cl)ccc2-n2c(SC)nnc21` [Compound 102, methyl (S)-3-(8-chloro-1-(methylthio)-6-phenyl-4H-benzo[f][1,2,4]triazolo[4,3-a][1,4]diazepin-4-yl)propionate] gave a Latency [1] of 0.37 min, a Duration ([2]; 30 mg/kg) of 17.24 min and a Latency ([2]; 30 mg/kg) of 1.13 min. It also gave a Duration ([2]; 60 mg/kg) of 7.47 min, a Latency ([2]; 60 mg/kg) of 0.39 min and a half-life at 0.4 mg/mL [3] of 16.2 s. For the same compound, the EC50 [4, 8] was 0.48 µM, the “Enhancement percentage Emax for 2 μM GABA current (within 3-30 μM)” value (from here on “Enhancement percentage Emax”) ([4]; −60 mV) was 291% (20 μM) and the Duration of anesthesia [5] was 4.27 min. For the same compound, the “Time from wake-up to recovery” value [5] was 25.5 min and the “In vitro blood-brain barrier, compound permeability at 5 min” value (from here on “In vitro blood-brain barrier”) [6] was 87.1%.
With `COC(=O)CC[C@@H]1N=C(c2ccccn2)c2cc(Br)ccc2-n2c(SCc3ccncc3)nnc21` [Compound 126, methyl (S)-3-(8-bromo-6-(pyridin-2-yl)-1-(((pyridin-4-yl)methyl)thio)-4H-benzo[f][1,2,4]triazolo[4,3-a][1,4]diazepin-4-yl)propionate] the Latency [1] was 0.26 min, the Duration ([2]; 30 mg/kg) was 5.05 min and the Latency ([2]; 30 mg/kg) was 0.16 min. The half-life at 0.4 mg/mL [3] was 24.6 s, the EC50 [4, 8] was 0.45 µM and the “Enhancement percentage Emax” value ([4]; −60 mV) was 306% (20 μM). For the same compound, the pIC50 [7] was 4.14, the Duration of anesthesia [5] was 9.52 min and the “Time from wake-up to recovery” value [5] was 20.5 min. For the same compound, the “In vitro blood-brain barrier” value [6] was 85.6%.
Compound `COC(=O)CC[C@H]1N=C(c2ccccc2Cl)c2cc(Cl)ccc2-n2c(SCCN3CCC(O)CC3)nnc21` [Compound 135, methyl (S)-3-(8-chloro-6-(2-chlorophenyl)-1-(2-((4-hydroxypiperidin-1-yl)ethyl)thio)-4H-benzo[f][1,2,4]triazolo[4,3-a][1,4]diazepin-4-yl)propionate] has a Duration [1] of 16.64 min, a Latency [1] of 0.14 min and a Duration ([2]; 30 mg/kg) of 10.64 min. The Latency ([2]; 30 mg/kg) was 0.22 min, the “In vitro plasma half-life” value [3] was 19.8 s and the EC50 [4, 9] was 0.75 µM. The “Enhancement percentage Emax” value ([4]; −60 mV) was 263% (20 μM), the pIC50 ([7]; hERG channel, fluorescence polarization, 8 concentrations, read-out: IC50) was 4.50 and the Duration of anesthesia [5] was 7.24 min. For the same compound, the “Time from wake-up to recovery” value [5] was 13.6 min and the “In vitro blood-brain barrier” value [6] was 80.2%.
Compound `Cc1ncc2n1-c1ccc(Cl)cc1C(c1ccccc1F)=NC2` [Midazolam, reference compound] has a pIC50 [7] of 5.15.
`COC(=O)CC[C@@H]1N=C(c2ccccc2F)c2cc(Cl)ccc2-n2c1n[nH]c2=S` [Tautomer of compound 1, methyl (S)-3-(8-chloro-6-(2-fluorophenyl)-1-thio-2,4-dihydro-1H-benzo[f][1,2,4]triazolo[4,3-a][1,4]diazepin-4-yl)propionate] showed a Duration [1] of 11.03 min, a Latency [1] of 0.68 min and a Duration ([2]; 30 mg/kg) of 3.47 min. The Latency ([2]; 30 mg/kg) was 0.21 min, the “In vitro plasma half-life” value [3] was 279 s and the EC50 [4, 9] was 0.72 µM. For the same compound, the “Enhancement percentage Emax” value ([4]; −60 mV) was 234% (20 μM), the Duration of anesthesia [5] was 3.29 min and the “Time from wake-up to recovery” value [5] was 9.6 min. For the same compound, the “In vitro blood-brain barrier” value [6] was 76.8%.
